Laboratory results published in patent US20250163104A1, “MACROCYCLIC IMMUNOMODULATORS” (priority 2021, published 2025).
pIC50: −log10 of the molar value. *1 amine or outer side, *2 acyl side, *3 side chain or, on linkers, in order; H or OH if unused. Where a SMILES comes first, the peptide text is derived from it. Bridges are numbered along the chain shown (N, C = ends). [ ]: non-standard residue; d: D form. The star is where a group is joined. ξ: configuration not given here. Phe(3-CF3) = N[C@@H](Cc1cccc(C(F)(F)F)c1)C(=O)O; Ala(morpholin-4-yl) = N[C@@H](CN1CCOCC1)C(=O)O; Phe(4-COOH) = N[C@@H](Cc1ccc(C(=O)O)cc1)C(=O)O; Asp(3,3-Me2) = CC(C)(C(=O)O)[C@H](N)C(=O)O; Bip = N[C@@H](Cc1ccc(-c2ccccc2)cc1)C(=O)O; Phe(3-Me) = Cc1cccc(C[C@H](N)C(=O)O)c1; γGlu = O=C(O)[C@H](CCC(=O)[*:2])N[*:1]; Val(3-OH) = CC(C)(O)[C@H](N)C(=O)O; 4Pal = N[C@@H](Cc1ccncc1)C(=O)O; Cha = N[C@@H](CC1CCCCC1)C(=O)O; Cit = NC(=O)NCCC[C@H](N)C(=O)O; Thr(3ξ) = CC(O)[C@H](N)C(=O)O; dNle = CCCC[C@@H](N)C(=O)O; hSer = N[C@@H](CCO)C(=O)O; Carboxymethyl = O=C(O)C*; Orn = NCCC[C@H](N)C(=O)O; Pra = C#CC[C@H](N)C(=O)O; Dab = NCC[C@H](N)C(=O)O; Dap = NC[C@H](N)C(=O)O; NHCH2CH2OMe = COCCN*

Molecular target: T1, human PD-1 / PD-L1-Ig binding on Jurkat cell line over-expressing human PD-1 (Jurkat-PD-1) (Homo sapiens, UniProt Q15116)
T1 construct: expressed in transfected cells; host or cells: Jurkat
T1 sequence (Q15116 25-288): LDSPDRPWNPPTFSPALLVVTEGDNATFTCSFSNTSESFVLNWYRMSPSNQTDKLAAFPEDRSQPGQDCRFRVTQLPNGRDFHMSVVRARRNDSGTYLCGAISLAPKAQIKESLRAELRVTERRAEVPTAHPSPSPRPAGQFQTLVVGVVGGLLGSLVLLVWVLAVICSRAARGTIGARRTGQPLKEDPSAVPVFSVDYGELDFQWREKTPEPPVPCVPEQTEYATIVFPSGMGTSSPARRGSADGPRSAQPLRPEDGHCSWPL
Assay: Jurkat-PD-1 Cell Binding High-Content Screening Assay (CBA)
Type: cell-based
Conditions: Jurkat HPD1_PDL1 IC50, Jurkat-PD-1 cells, PE-labeled PD-L1-Ig 20 nM final
In short: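 Read-out: high-content imaging of PE-tagged PD-L1-Ig bound to Jurkat cells overexpressing human PD-1, after fixation with 4% paraformaldehyde and Hoechst 33342 nuclear staining. Ligand was used at 20 nM final for 1 hour, after a 2 h compound exposure at 37° C in serum-containing DMEM.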

Structure (SMILES)	pIC50
CC(C)C[C@H]1NC(=O)[C@H](CCCN)NC(=O)[C@H](C(C)C)NC(=O)[C@H](Cc2ccc(-c3ccccc3)cc2)NC(=O)[C@H](C(C)C)NC(=O)[C@H](Cc2c[nH]c3ccccc23)NC(=O)[C@H](CC(=O)O)NC(=O)[C@H](Cc2ccc(OCC(=O)O)cc2)NC(=O)[C@H](CN)NC(=O)CSC[C@@H](C(=O)N[C@@H](C)C(=O)N[C@@H](Cc2ccc(OCc3ccccc3)cc2)C(N)=O)NC(=O)[C@H]([C@@H](C)O)NC(=O)[C@H](C(C)C)NC(=O)[C@H](CC2CCCCC2)NC(=O)[C@H](CCN)NC1=O [Compound 1535]	6.89

Same assay, conditions: Jurkat-PD-1 cells, PE-labeled PD-L1-Ig 20 nM final; read-out: Jurkat HPD1_PDL1 IC50

pIC50	Structure (SMILES)
7.93	Cc1cccc(C[C@@H]2NC(=O)[C@H](CC(=O)O)NC(=O)[C@H](Cc3ccc(C(=O)O)cc3)NC(=O)[C@H](Cc3ccncc3)NC(=O)CSC[C@@H](C(=O)N[C@@H](CO)C(N)=O)NC(=O)[C@H](CO)NC(=O)[C@H](C(C)C)NC(=O)[C@H](CC3CCCCC3)NC(=O)[C@H](CCN)NC(=O)[C@@H](CC(C)C)NC(=O)[C@H](CCCN)NC(=O)[C@H](Cc3ccc(OCC(=O)O)cc3)NC(=O)[C@H](Cc3ccc(-c4ccccc4)cc3)NC(=O)[C@H](Cc3ccc(OCC(=O)O)cc3)NC2=O)c1 [Compound 2295] ({CH2CO}-[4Pal][Phe(4-COOH)]D[Phe(3-Me)]Y(Carboxymethyl)[Bip]Y(Carboxymethyl)[Orn][dL][Dab][Cha]VSCS-NH2; thioether N-14)
6.83	Cc1cccc(C[C@@H]2NC(=O)[C@H](CC(=O)O)NC(=O)[C@H](Cc3ccc(OCC(=O)O)cc3)NC(=O)[C@H](CCN)NC(=O)CSC[C@@H](C(=O)N[C@H](C(N)=O)C(C)(C)C(=O)O)NC(=O)[C@H](CO)NC(=O)[C@H](C(C)(C)O)NC(=O)[C@H](CC3CCCCC3)NC(=O)[C@H](CCN)NC(=O)[C@@H](CC(C)C)NC(=O)[C@H](CCCN)NC(=O)[C@H](Cc3ccc(OCC(=O)O)cc3)NC(=O)[C@H](Cc3ccc(-c4ccccc4)cc3)NC(=O)[C@H](Cc3ccc(OCC(=O)O)cc3)NC2=O)c1 [Compound 2071] ({CH2CO}-[Dab]Y(Carboxymethyl)D[Phe(3-Me)]Y(Carboxymethyl)[Bip]Y(Carboxymethyl)[Orn][dL][Dab][Cha][Val(3-OH)]SC[Asp(3,3-Me2)]-NH2; thioether N-14)
7.45	CCCC[C@H]1NC(=O)[C@H](CCCN)NC(=O)[C@H](CCCNC(N)=O)NC(=O)[C@H](Cc2ccc(-c3ccccc3)cc2)NC(=O)[C@H](C(C)C)NC(=O)[C@H](Cc2c[nH]c3ccccc23)NC(=O)[C@H](CC(=O)O)NC(=O)[C@H](Cc2ccc(O)cc2)NC(=O)[C@H](CC(N)=O)NC(=O)CSC[C@@H](C(=O)N[C@@H](C)C(N)=O)NC(=O)[C@H]([C@@H](C)O)NC(=O)[C@H](C(C)C)NC(=O)[C@H](CC2CCCCC2)NC(=O)[C@H](CCN)NC1=O [Compound 1704] ({CH2CO}-NYDWV[Bip][Cit][Orn][dNle][Dab][Cha]VTCA-NH2; thioether N-14)
8.18	C#CC[C@H](NC(=O)CC[C@H](NC(=O)[C@@H]1CSCC(=O)N[C@@H](CN)C(=O)N[C@@H](Cc2ccc(OCC(=O)O)cc2)C(=O)N[C@@H](CC(=O)O)C(=O)N[C@@H](Cc2cccc(C)c2)C(=O)N[C@@H](Cc2ccc(OCC(=O)O)cc2)C(=O)N[C@@H](Cc2ccc(-c3ccccc3)cc2)C(=O)N[C@@H](Cc2ccc(OCC(=O)O)cc2)C(=O)N[C@@H](CCCN)C(=O)N[C@H](CC(C)C)C(=O)N[C@@H](CCN)C(=O)N[C@@H](CC2CCCCC2)C(=O)N[C@@H](C(C)C)C(=O)N[C@@H]([C@@H](C)O)C(=O)N1)C(=O)O)C(N)=O [Compound 1804] ({CH2CO}-[Dap]Y(Carboxymethyl)D[Phe(3-Me)]Y(Carboxymethyl)[Bip]Y(Carboxymethyl)[Orn][dL][Dab][Cha]VTC[γGlu][Pra]-NH2; thioether N-14)
6.44	CC(C)C[C@H]1NC(=O)[C@H](CCCN)NC(=O)[C@H](CCC(=O)O)NC(=O)[C@H](Cc2ccc(-c3ccccc3)cc2)NC(=O)[C@H](C(C)C)NC(=O)[C@H](Cc2c[nH]c3ccccc23)NC(=O)[C@H](CO)NC(=O)[C@H](Cc2ccc(OCC(=O)O)cc2)NC(=O)[C@H](CN)NC(=O)CSC[C@@H](C(=O)N[C@@H](C)C(N)=O)NC(=O)[C@H]([C@@H](C)O)NC(=O)[C@H](C(C)C)NC(=O)[C@H](CC2CCCCC2)NC(=O)[C@H](CCN)NC1=O [Compound 1498] ({CH2CO}-[Dap]Y(Carboxymethyl)SWV[Bip]E[Orn][dL][Dab][Cha]VTCA-NH2; thioether N-14)
7.93	Cc1cccc(C[C@@H]2NC(=O)[C@H](CC(=O)O)NC(=O)[C@H](Cc3ccc(OCC(=O)O)cc3)NC(=O)[C@H](CN)NC(=O)CSC[C@@H](C(=O)NCC(N)=O)NC(=O)[C@H]([C@@H](C)O)NC(=O)[C@H](C(C)C)NC(=O)[C@H](CC3CCCCC3)NC(=O)[C@H](CCN)NC(=O)[C@@H](CC(C)C)NC(=O)[C@H](CCCN)NC(=O)[C@H](CCCNC(N)=O)NC(=O)[C@H](Cc3ccc(-c4ccccc4)cc3)NC(=O)[C@H](C(C)C)NC2=O)c1 [Compound 2255] ({CH2CO}-[Dap]Y(Carboxymethyl)D[Phe(3-Me)]V[Bip][Cit][Orn][dL][Dab][Cha]VTCG-NH2; thioether N-14)
8.00	CCCC[C@@H]1NC(=O)[C@H](CCN)NC(=O)[C@@H](CC(C)C)NC(=O)[C@H](CCCN)NC(=O)[C@H]([C@@H](C)CC)NC(=O)[C@H](Cc2ccc(-c3ccccc3)cc2)NC(=O)[C@H](C(C)C)NC(=O)[C@H](Cc2cccc(C)c2)NC(=O)[C@H](CC(=O)O)NC(=O)[C@H](Cc2ccc(C(=O)O)cc2)NC(=O)[C@H](Cc2ccncc2)NC(=O)CSC[C@@H](C(=O)N[C@@H](C)C(N)=O)NC(=O)[C@H]([C@@H](C)O)NC(=O)[C@H](C(C)C)NC1=O [Compound 1191]
7.86	CC[C@H](C)[C@@H]1NC(=O)[C@H](Cc2ccc(-c3ccccc3)cc2)NC(=O)[C@H](C(C)C)NC(=O)[C@H](Cc2c[nH]c3ccccc23)NC(=O)[C@H](CC(=O)O)NC(=O)[C@H](Cc2ccc(O)cc2)NC(=O)[C@H](Cc2ccncc2)NC(=O)CSC[C@@H](C(=O)N[C@@H](C)C(N)=O)NC(=O)[C@H]([C@@H](C)O)NC(=O)[C@H](C(C)C)NC(=O)[C@H](CC(C)C)NC(=O)[C@H](CCN)NC(=O)[C@@H](CC(C)C)NC(=O)[C@H](CCCN)NC1=O [Compound 1053] ({CH2CO}-[4Pal]YDWV[Bip]I[Orn][dL][Dab]LVTCA-NH2; thioether N-14)
8.09	CC(C)C[C@H]1NC(=O)[C@H](CCCN)NC(=O)[C@H](Cc2cnc[nH]2)NC(=O)[C@H](Cc2ccc(-c3ccccc3)cc2)NC(=O)[C@H](C(C)C)NC(=O)[C@H](Cc2c[nH]c3ccccc23)NC(=O)[C@H](CC(=O)O)NC(=O)[C@H](Cc2ccc(OCC(=O)O)cc2)NC(=O)[C@H](C(C)O)NC(=O)CSC[C@@H](C(=O)N[C@@H](CC(N)=O)C(N)=O)NC(=O)[C@H](CO)NC(=O)[C@H](C(C)C)NC(=O)[C@H](CC2CCCCC2)NC(=O)[C@H](CCN)NC1=O (stereo partly drawn) [Compound 2561] ({CH2CO}-[Thr(3ξ)]Y(Carboxymethyl)DWV[Bip]H[Orn][dL][Dab][Cha]VSCN-NH2; thioether N-14)
7.87	CC(C)C[C@H]1NC(=O)[C@H](CCCN)NC(=O)[C@H](CCC(=O)O)NC(=O)[C@H](Cc2ccc(-c3ccccc3)cc2)NC(=O)[C@H](C(C)C)NC(=O)[C@H](Cc2cccc(C(F)(F)F)c2)NC(=O)[C@H](CC(=O)O)NC(=O)[C@H](Cc2ccc(C(=O)O)cc2)NC(=O)[C@H](Cc2ccc(OCC(=O)O)cc2)NC(=O)CSC[C@@H](C(=O)N[C@@H](C)C(N)=O)NC(=O)[C@H]([C@@H](C)O)NC(=O)[C@H](C(C)C)NC(=O)[C@H](CC2CCCCC2)NC(=O)[C@H](CCN)NC1=O [Compound 1461]
7.75	Cc1cccc(C[C@@H]2NC(=O)[C@H](CC(=O)O)NC(=O)[C@H](Cc3ccc(OCC(=O)O)cc3)NC(=O)[C@H](CN)NC(=O)CSC[C@@H](C(=O)N[C@@H](C)C(N)=O)NC(=O)[C@H]([C@@H](C)O)NC(=O)[C@H](C(C)C)NC(=O)[C@H](CC3CCCCC3)NC(=O)[C@H](Cc3cnc[nH]3)NC(=O)[C@@H](CC(C)C)NC(=O)[C@H](CCCN)NC(=O)[C@H](C(C)C)NC(=O)[C@H](Cc3ccc(-c4ccccc4)cc3)NC(=O)[C@H](C(C)C)NC2=O)c1 [Compound 1579]
7.45	CC(C)C[C@H]1NC(=O)[C@H](CCCN)NC(=O)[C@H](Cc2ccc(OCC(=O)O)cc2)NC(=O)[C@H](Cc2ccc(-c3ccccc3)cc2)NC(=O)[C@H](Cc2ccc(C(=O)O)cc2)NC(=O)[C@H](Cc2cccc(C(F)(F)F)c2)NC(=O)[C@H](CC(N)=O)NC(=O)[C@H](Cc2ccc(OCC(=O)O)cc2)NC(=O)[C@H](CN2CCOCC2)NC(=O)CSC[C@@H](C(=O)N[C@@H](CCN)C(N)=O)NC(=O)[C@H](CO)NC(=O)[C@H](C(C)C)NC(=O)[C@H](CC2CCCCC2)NC(=O)[C@H](CCN)NC1=O [Example 2724] ({CH2CO}-[Ala(morpholin-4-yl)]Y(Carboxymethyl)N[Phe(3-CF3)][Phe(4-COOH)][Bip]Y(Carboxymethyl)[Orn][dL][Dab][Cha]VSC[Dab]-NH2; thioether N-14)
8.39	COCCNC(=O)[C@H](CCN)NC(=O)[C@@H]1CSCC(=O)N[C@@H](CCOC)C(=O)N[C@@H](Cc2ccc(OCC(=O)O)cc2)C(=O)N[C@@H](CC(=O)O)C(=O)N[C@@H](Cc2cccc(C)c2)C(=O)N[C@@H](Cc2ccc(OCC(=O)O)cc2)C(=O)N[C@@H](Cc2ccc(-c3ccccc3)cc2)C(=O)N[C@@H](Cc2ccc(OCC(=O)O)cc2)C(=O)N[C@@H](CCCN)C(=O)N[C@H](CC(C)C)C(=O)N[C@@H](CCN)C(=O)N[C@@H](CC2CCCCC2)C(=O)N[C@@H](C(C)(C)O)C(=O)N[C@@H](CO)C(=O)N1 [Compound 2075] ({CH2CO}-[hSer](Me)Y(Carboxymethyl)D[Phe(3-Me)]Y(Carboxymethyl)[Bip]Y(Carboxymethyl)[Orn][dL][Dab][Cha][Val(3-OH)]SC[Dab]-NHCH2CH2OMe; thioether N-14)
